# Columns and labels:
# C. elegans N2 wild-type = experiment: Chitinase assay (reproductive capacity); type: in vivo, Caenorhabditis elegans; settings: Caenorhabditis elegans
# Outline: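 Wild-type N2 L1 larvae were exposed to compounds for 4 days, then populations were examined microscopically and Chitinase activity, released at hatching, was measured as a read-out of reproduction. Failure from acute or reproductive toxicity or developmental defects is detected.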
# [1] = test system: C. elegans CB211 lev-1(e211) IV.; experiment: Chitinase assay (reproductive capacity); type: in vivo; settings: Caenorhabditis elegans; levamisole-resistant strain
# Method: (§1) C. elegans strains used in this study were N2 (wild-type), levamisole-resistant strains ZZ15 (lev-8(x15) X) and […] (lev-1(e211) IV), ivermectin-resistant strain DA1316 (avr-14(ad1305) I; avr-15(vu227) glc-1(pk54) V), mebendazole-resistant strain […] (ben-1(e1880) III), and three strains with mutations in succinate dehydrogenase, RP2699, RP2700, and RP2702. The worms were cultivated on Nematode Growth Medium agar plates seeded with Escherichia coli OP50 in 20 °C according to the standard cultivation protocols. Strains RP2699, RP2700, and RP2702 were generated by Prof. Peter Roy’s group. All other strains and bacteria were purchased from the Caenorhabditis Genetics Center (CGC, Minneapolis, MN).
# (§2) The effect of compounds on C. elegans was evaluated using the Chitinase assay as we described previously.
# (§3) Lastly, strain DA1316 has mutations in three genes encoding subunits of the glutamate-gated chloride channel and is highly resistant to avermectins.
# [2] = test system: C. elegans CB3474 ben-1(e1880) III.; experiment: Chitinase assay (reproductive capacity); type: in vivo; settings: Caenorhabditis elegans; mebendazole-resistant strain
# Method: as §1, §2, §3
# [3] = test system: C. elegans DA1316 avr-14(ad1305) I; avr-15(vu227) glc-1(pk54) V.; experiment: Chitinase assay (reproductive capacity); type: in vivo; settings: Caenorhabditis elegans; ivermectin-resistant strain
# Method: as §1, §2, §3
# [4] = test system: C. elegans ZZ15 lev-8(x15) X.; experiment: Chitinase assay (reproductive capacity); type: in vivo; settings: Caenorhabditis elegans; levamisole-resistant strain
# Method: as §1, §2, §3
# xL3 H. contortus = experiment: Motility on WMicrotracker ONE; type: in vivo; settings: 48 h; for reduction of movement rates: 50 µM
# Method: H. contortus L3 were obtained by culturing feces collected from experimentally infected sheep (located in the facilities of the Instituto de Ganadera de Montaa, Leon, Spain) in aerated and humidified closed containers, which were placed in a climatic chamber at 28 °C for 5 days. Larvae were recovered by immersing the feces in tap water for 5 h to stimulate migration. The suspension was then filtered through a 20 μm sieve. Subsequently, larvae were collected using a Baermann apparatus with a 30 μm mesh overnight at 23 °C. Exsheathment of L3 larvae was performed by incubating them in 0.1% (v/v) sodium hypochlorite for 1 h at room temperature on a rotator, followed by three washes with tap water to remove residual bleach.
# The effect of compounds on motility of H. contortus, D. destructor, and H. schachtii was evaluated using the WMicrotracker ONE platform according to previously published protocols. ,
# We mostly focused on the three derivatives containing a halogen substitution in the 4-position of the phenyl ring, namely, i-19, i-20, and i-21. An initial experiment was also conducted with a representative compound with an aliphatic chain, namely, i-12, in which we observed only a relatively small effect on the motility of larvae (approximately 30% decrease in motility of nematodes treated with 100 μM of the compound after 48 h in comparison to vehicle-treated worms; Figure S2.7). […] The effect was apparent starting at 3 h and beyond. At 48 h, the latest time point was tested, and the movement rates of nematodes exposed to 50 μM of i-19, i-20, and i-21 were reduced by 76%, 80%, and 82%, respectively.
# [5] = test system: Arabidopsis thaliana Col-0; experiment: Germination rate and phytotoxicity; type: in vivo; settings: for average fraction of germinated seeds: 5 DPS; for main root length / plant weight: 10 DPS
# Method: Wild-type A. thaliana (Col-0 ecotype) seeds were sterilized with 70% EtOH with 0.1% Tween-20 solution (2 × 1 mL) for 10 min, rinsed with 96% EtOH (1 × 1 mL) for 10 min, and kept in the fridge (4 °C in the dark). Seeds were sown on a sterile 1/2 MS medium supplemented with 0.3% DMSO as a mock and test compounds at 5, 10, 50, and 100 μM concentrations in 0.3% DMSO. Plates were kept in long-day light conditions (22 °C/20 °C, 16 h light/8 h dark, 100 μmol m^–2 s^–1). After 5 days, the germination rate was evaluated. After an additional 5 days, primary root growth was measured with ImageJ software (https://imagej.nih.gov/ij/), and seedlings were weighted.
# Skin fibroblasts (BJ) = experiment: Resazurin assay, 3-day treatment; type: cell-based, human; settings: for Average viability (signal intensity relative to control): BJ
Compound,IC50 (C. elegans N2 wild-type),IC50 [1],IC50 [2],IC50 [3],IC50 [4],reduction of movement rates (xL3 H. contortus),average fraction of germinated seeds ([5]; 5 µM),main root length ([5]; 5 µM),plant weight ([5]; 5 µM),average fraction of germinated seeds ([5]; 10 µM),main root length ([5]; 10 µM),plant weight ([5]; 10 µM),average fraction of germinated seeds ([5]; 50 µM),main root length ([5]; 50 µM),plant weight ([5]; 50 µM),average fraction of germinated seeds ([5]; 100 µM),main root length ([5]; 100 µM),Average viability (signal intensity relative to control) (Skin fibroblasts (BJ); 10 µM),Average viability (signal intensity relative to control) (Skin fibroblasts (BJ); 20 µM),Average viability (signal intensity relative to control) (Skin fibroblasts (BJ); 40 µM),also measured
Fc1ccc(-c2ccc3[nH]ccc3c2)cc1 [i-20],9.05 ± 0.62 µM,9.02 ± 0.75 µM,9.97 ± 1.06 µM,10.4 ± 1.09 µM,11 ± 0.51 µM,80%,0.96,39.53 mm,30.62 mg,0.91,34.00 mm,27.14 mg,0.96,31.49 mm,24.67 mg,0.95,25.82 mm,0.96 ± 0.01,0.98 ± 0.02,0.96 ± 0.03,plant weight ([5]; 100 µM): 16.94 mg
Clc1ccc(-c2ccc3[nH]ccc3c2)cc1 [i-19],6.67 ± 0.6 µM,6.8 ± 1.95 µM,6.61 ± 0.85 µM,5.15 ± 1.01 µM,5.92 ± 0.39 µM,76%,0.93,38.83 mm,32.28 mg,0.96,37.74 mm,30.72 mg,0.97,33.27 mm,24.85 mg,0.93,19.96 mm,0.98 ± 0.02,1.02 ± 0.06,1 ± 0.03,plant weight ([5]; 100 µM): 15.22 mg; effect on the viability of fibroblasts (Skin fibroblasts (BJ); up to 40 μM): no effect
FC(F)(F)Oc1ccc(-c2ccc3[nH]ccc3c2)cc1 [i-21],8.58 ± 0.99 µM,10.1 ± 0.39 µM,9.01 ± 0.78 µM,10.4 ± 0.41 µM,10.6 ± 0.48 µM,82%,0.98,41.56 mm,34.37 mg,1.00,42.21 mm,36.56 mg,1.00,35.82 mm,24.65 mg,0.96,30.90 mm,0.94 ± 0.02,0.96 ± 0.04,0.87 ± 0.03,plant weight ([5]; 100 µM): 21.97 mg

# More lines, main results first:
IC50 (C. elegans N2 wild-type),IC50 [1],IC50 [2],IC50 [3],IC50 [4],Compound,reduction of movement rates (xL3 H. contortus),average fraction of germinated seeds ([5]; 5 µM),main root length ([5]; 5 µM),plant weight ([5]; 5 µM),average fraction of germinated seeds ([5]; 10 µM),main root length ([5]; 10 µM),plant weight ([5]; 10 µM),average fraction of germinated seeds ([5]; 50 µM),main root length ([5]; 50 µM),plant weight ([5]; 50 µM),average fraction of germinated seeds ([5]; 100 µM),main root length ([5]; 100 µM),Average viability (signal intensity relative to control) (Skin fibroblasts (BJ); 10 µM),Average viability (signal intensity relative to control) (Skin fibroblasts (BJ); 20 µM),Average viability (signal intensity relative to control) (Skin fibroblasts (BJ); 40 µM),also measured
9.6 ± 0.9 µM,8.69 ± 1.26 µM,8.32 ± 0.74 µM,7.59 ± 1.99 µM,8.03 ± 1.13 µM,CCCOc1cccc(-c2ccc3[nH]ccc3c2)c1 [i-12],,0.96,37.25 mm,32.51 mg,0.93,38.66 mm,34.91 mg,0.93,35.82 mm,27.55 mg,,,0.96 ± 0.01,1.04 ± 0.05,0.96 ± 0.03,decrease in motility in comparison to vehicle-treated worms (xL3 H. contortus; 100 µM): approximately 30%
7.09 ± 0.72 µM,8.8 ± 1.21 µM,8.28 ± 0.99 µM,8.45 ± 1.36 µM,7.63 ± 0.91 µM,CCCOc1ccc(-c2ccc3[nH]ccc3c2)cc1 [i-13],,0.98,40.24 mm,37.8 mg,0.93,39.42 mm,36.95 mg,0.91,36.26 mm,26.29 mg,,,0.97 ± 0.01,1 ± 0.05,0.98 ± 0.03,

# Reference: article PMC12766724, “Synthesis, Anthelmintic Activity, and Mechanism of Action of 5‑Aryl‑1H‑indoles” (Journal of Agricultural and Food Chemistry, 2025)
